How the values were obtained:
[1] = Relative solubility by turbidity in aqueous buffers (pH 1.5, 4.5, 6.8, 7.4); format: physicochemical; settings: for turbidity threshold (L, M, H) 1.4: pH 1.5 buffer (SGF); for turbidity threshold (L, M, H) 4.5: pH 4.5 buffer (SIF); for turbidity threshold (L, M, H) 6.8: pH 6.8 buffer (SIF); for turbidity threshold (L, M, H) 7.4: pH 7.4 buffer (HEPES)
Protocol: As an indication of relative solubility, the turbidity of compounds in aqueous solutions is assessed. To assess possible compound properties in different physiological compartments, such as stomach, intestine, and blood, a series of aqueous buffers with varying pH is used. Thus each compound is diluted into four different physiologically relevant buffers and solution turbidity is measured by spectrophotometry.
Compounds are dissolved at a concentration of 25 mM in dimethyl sulfoxide, then serially diluted 1:1 into a 96 well plate, diluting 10 times in pure dimethyl sulfoxide, with the final well of each row a dimethyl sulfoxide blank. In an assay plate, 99 μL of appropriate buffer is added to each well, and 1 μL of each sample dilution is added to the buffer, achieving a range of final total concentrations in aqueous solutions having different pH. The buffers used are Simulated Gastric Fluid (SGF-pH 1.5) 0.5M NaCl, pH 1.5; Simulated Intestinal fluid (SIF-pH 4.5 and pH 6.8) 0.05M NaH2PO4, pH 4.5 and 6.8; and Hepes Buffer (HEPES-pH 7.4) 10 mM HEPES, 150 mM NaCl, pH 7.4. Control compounds pyrene, estriol and propranolol HCl are also assessed. Plates are spun and then mixed for 1 minute, and the absorbance is read using a Tecan Safire II to read wavelengths in the visible range (490, 535, and 650 nm) at four locations per well, reflecting the degree of turbidity present. The average optical density for each wavelength in each well is graphed vs. compound concentration, and the concentration at which the curve crosses a threshold O.D. of 0.01 for each wavelength is reported as the endpoint turbidity assay result. The average of the three wavelengths is used to compare turbidity of compounds. Compounds are considered to have low solubility if the threshold concentration is <31.3 μM, moderate solubility if the threshold concentration is 31.3 μM to 250 μM, and high solubility if the threshold concentration is >250 μM.
The following table indicates the relative solubility (L=low, M=moderate, H=high) based on turbidity threshold concentration at each pH for exemplary compounds according to the invention: […]

[2] = molecular target: B-Raf V600E (Homo sapiens, UniProt P15056, V600E); assay: B-Raf V600E kinase activity assay (AlphaScreen, biotin-MEK1 substrate); settings: 100 μM ATP, 100 nM biotin-MEK1, 45 minutes at room temperature, read-out: Biochemical activity (IC50 μM) V600E
Protocol: (§1) Assays for biochemical and cell based activity are known in the art, for example, as described in PCT publication WO 2007/002433, the disclosure of which is hereby incorporated by reference as it relates to such assays. For example, the biochemical activity IC50 values are determined with respect to inhibition of B-Raf kinase activity, c-Raf-1 kinase activity, or B-Raf V600E kinase activity, where inhibition of phosphorylation of a peptide substrate is measured as a function of compound concentration. Compounds to be tested are diluted in dimethyl sulfoxide to a concentration of 0.1 mM. These are serially diluted 15 μL into 30 μL of dimethyl sulfoxide seven times in 96 well plates for a total of 8 dilution points, and for each dilution point 1 μL is added to a well of an assay plate. Plates are prepared such that each well in a 384 well plate contains 1 μL of compound in 10 μL, volume with 0.1 ng Raf enzyme (i.e. any of B-Raf, c-Raf-1 or B-Raf V600E, Upstate Biotechnology or prepared by methods known to one of skill in the art), 50 mM HEPES, pH 7.0, 50 mM NaCl, 2 mM MgCl2, 1 mM MnCl2, 0.01% Tween-20, 1 mM DTT, and 100 nM biotin-MEK1 as substrate. The reaction is started with addition of 10 μL of 200 μM ATP (i.e. final 100 μM ATP). After incubation of the kinase reaction for 45 minutes at room temperature, 5 μL/well of Stop Solution is added (25 mM Hepes pH 7.5, 100 mM EDTA, 0.01% BSA with donor beads (Streptavidin coated beads, Perkin Elmer), acceptor beads (Protein A coated, Perkin Elmer), and anti phosphor MEK1/2 antibody (CellSignal), each at final concentration 10 μg/mL). The plates are incubated for 3 hours at room temperature and read on Envision reader (Perkin Elmer). Phosphorylation of Mek1 results in binding of the anti-phosphor-MEK1/2 antibody and association of the donor and acceptor beads such that signal correlates with kinase activity. The signal vs. compound concentration is used to determine the IC50.

[3] = molecular target: B-Raf (Homo sapiens, UniProt P15056); assay: B-Raf kinase activity assay (AlphaScreen, biotin-MEK1 substrate); settings: 100 μM ATP, 100 nM biotin-MEK1, 45 minutes at room temperature; read-out: Biochemical activity (IC50 μM) B-Raf
Protocol: as §1

Sequence of B-Raf (P15056 whole entry): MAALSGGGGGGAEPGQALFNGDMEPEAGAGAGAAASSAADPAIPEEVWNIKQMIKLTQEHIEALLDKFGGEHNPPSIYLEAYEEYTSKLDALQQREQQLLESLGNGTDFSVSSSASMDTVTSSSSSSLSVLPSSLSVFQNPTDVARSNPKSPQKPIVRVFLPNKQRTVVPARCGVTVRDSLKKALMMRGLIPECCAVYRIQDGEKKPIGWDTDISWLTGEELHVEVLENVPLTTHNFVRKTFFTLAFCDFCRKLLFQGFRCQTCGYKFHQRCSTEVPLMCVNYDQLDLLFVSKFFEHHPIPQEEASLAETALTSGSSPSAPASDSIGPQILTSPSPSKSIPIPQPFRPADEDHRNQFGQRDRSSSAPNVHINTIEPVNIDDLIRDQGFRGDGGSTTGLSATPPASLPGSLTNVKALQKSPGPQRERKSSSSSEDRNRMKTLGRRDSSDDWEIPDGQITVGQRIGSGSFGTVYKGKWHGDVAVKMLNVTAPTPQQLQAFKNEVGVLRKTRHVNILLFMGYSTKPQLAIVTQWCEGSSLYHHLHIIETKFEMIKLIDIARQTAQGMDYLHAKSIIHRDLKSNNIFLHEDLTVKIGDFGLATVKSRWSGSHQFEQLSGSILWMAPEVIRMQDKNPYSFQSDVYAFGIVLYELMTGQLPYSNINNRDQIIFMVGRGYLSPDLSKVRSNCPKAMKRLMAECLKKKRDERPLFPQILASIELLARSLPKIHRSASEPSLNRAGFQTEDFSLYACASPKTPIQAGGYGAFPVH
Sequence of B-Raf V600E (P15056 whole entry V600E): as the sequence (P15056 whole entry) above, with V600E counted along it

SMILES | turbidity threshold (L, M, H) 1.4 [1] | turbidity threshold (L, M, H) 4.5 [1] | turbidity threshold (L, M, H) 6.8 [1] | turbidity threshold (L, M, H) 7.4 [1] | IC50 [2] [µM] | IC50 [3] [µM]
CCCS(=O)(=O)Nc1ccc(F)c(C(=O)c2c[nH]c3ncc(-c4cnc(NCCN(C)C)nc4)cc23)c1F [P-1515, Propane-1-sulfonic acid (3-{5-[2-(2-dimethylamino-ethylamino)-pyrimidin-5-yl]-1H-pyrrolo[2,3-b]pyridine-3-carbonyl}-2,4-difluoro-phenyl)-amide] | L (low solubility if the threshold concentration is <31.3 μM) | M (moderate solubility if the threshold concentration is 31.3 μM to 250 μM) | M (moderate solubility if the threshold concentration is 31.3 μM to 250 μM) | M (moderate solubility if the threshold concentration is 31.3 μM to 250 μM) |  | 
CCCS(=O)(=O)Nc1ccc(F)c(C(=O)c2c[nH]c3ncc(-c4cnc(NCCOC)nc4)cc23)c1F [P-1505, Propane-1-sulfonic acid (2,4-difluoro-3-{5-[2-(2-methoxy-ethylamino)-pyrimidin-5-yl]-1H-pyrrolo[2,3-b]pyridine-3-carbonyl}-phenyl)-amide] | L (low solubility if the threshold concentration is <31.3 μM) | L (low solubility if the threshold concentration is <31.3 μM) | L (low solubility if the threshold concentration is <31.3 μM) | M (moderate solubility if the threshold concentration is 31.3 μM to 250 μM) |  | 
CCCS(=O)(=O)Nc1ccc(F)c(C(=O)c2c[nH]c3ncc(-c4ccc5cnn(C)c5c4)cc23)c1F [P-0027, Propane-1-sulfonic acid {2,4-difluoro-3-[5-(1-methyl-1H-indazol-6-yl)-1H-pyrrolo[2,3-b]pyridine-3-carbonyl]-phenyl}-amide] | L (low solubility if the threshold concentration is <31.3 μM) | L (low solubility if the threshold concentration is <31.3 μM) | L (low solubility if the threshold concentration is <31.3 μM) | L (low solubility if the threshold concentration is <31.3 μM) |  | 
CCCS(=O)(=O)Nc1ccc(F)c(C(=O)c2c[nH]c3ncc(-c4cnc(N5CCC5)nc4)cc23)c1F [P-1512, Propane-1-sulfonic acid {3-[5-(2-azetidin-1-yl-pyrimidin-5-yl)-1H-pyrrolo[2,3-b]pyridine-3-carbonyl]-2,4-difluoro-phenyl}-amide] | L (low solubility if the threshold concentration is <31.3 μM) | L (low solubility if the threshold concentration is <31.3 μM) | L (low solubility if the threshold concentration is <31.3 μM) | L (low solubility if the threshold concentration is <31.3 μM) |  | 
CC(C)(C)OC(=O)N1CCC(n2cc(-c3cnc4[nH]cc(C(=O)c5c(F)ccc(NS(=O)(=O)c6ccc(C(F)(F)F)cc6)c5F)c4c3)cn2)CC1 [P-1003, 4-(4-{3-[2,6-Difluoro-3-(4-trifluoromethyl-benzenesulfonylamino)-benzoyl]-1H-pyrrolo[2,3-b]pyridin-5-yl}-pyrazol-1-yl)-piperidine-1-carboxylic acid tert-butyl ester] |  |  |  |  | < 10 | < 0.1
COCCNc1ncc(-c2cnc3[nH]cc(C(=O)c4c(F)ccc(NS(=O)(=O)c5cc(F)ccc5F)c4F)c3c2)cn1 [P-1507, N-(2,4-Difluoro-3-{5-[2-(2-methoxy-ethylamino)-pyrimidin-5-yl]-1H-pyrrolo[2,3-b]pyridine-3-carbonyl}-phenyl)-2,5-difluoro-benzenesulfonamide] | L (low solubility if the threshold concentration is <31.3 μM) | L (low solubility if the threshold concentration is <31.3 μM) | L (low solubility if the threshold concentration is <31.3 μM) | L (low solubility if the threshold concentration is <31.3 μM) |  | 
CCCS(=O)(=O)Nc1ccc(F)c(C(=O)c2c[nH]c3ncc(-c4cnc(NCCCOC)nc4)cc23)c1F [P-1516, Propane-1-sulfonic acid (2,4-difluoro-3-{5-[2-(3-methoxy-propylamino)-pyrimidin-5-yl]-1H-pyrrolo[2,3-b]pyridine-3-carbonyl}-phenyl)-amide] | L (low solubility if the threshold concentration is <31.3 μM) | L (low solubility if the threshold concentration is <31.3 μM) | L (low solubility if the threshold concentration is <31.3 μM) | L (low solubility if the threshold concentration is <31.3 μM) |  | 
CCCS(=O)(=O)Nc1ccc(F)c(C(=O)c2c[nH]c3ncc(-c4cnc(NC5CC5)nc4)cc23)c1F [P-1504, Propane-1-sulfonic acid {3-[5-(2-cyclopropylamino-pyrimidin-5-yl)-1H-pyrrolo[2,3-b]pyridine-3-carbonyl]-2,4-difluoro-phenyl}-amide] | L (low solubility if the threshold concentration is <31.3 μM) | M (moderate solubility if the threshold concentration is 31.3 μM to 250 μM) | M (moderate solubility if the threshold concentration is 31.3 μM to 250 μM) | M (moderate solubility if the threshold concentration is 31.3 μM to 250 μM) |  | 
CCCS(=O)(=O)Nc1ccc(F)c(C(=O)c2c[nH]c3ncc(-c4cnc(NC)nc4)cc23)c1F [P-1514, Propane-1-sulfonic acid {2,4-difluoro-3-[5-(2-methylamino-pyrimidin-5-yl)-1H-pyrrolo[2,3-b]pyridine-3-carbonyl]-phenyl}-amide] | L (low solubility if the threshold concentration is <31.3 μM) | L (low solubility if the threshold concentration is <31.3 μM) | M (moderate solubility if the threshold concentration is 31.3 μM to 250 μM) | L (low solubility if the threshold concentration is <31.3 μM) |  | 
CCCS(=O)(=O)Nc1ccc(F)c(C(=O)c2c[nH]c3ncc(-c4ccc5c(cnn5C)c4)cc23)c1F [P-0028, Propane-1-sulfonic acid {2,4-difluoro-3-[5-(1-methyl-1H-indazol-5-yl)-1H-pyrrolo[2,3-b]pyridine-3-carbonyl]-phenyl}-amide] | L (low solubility if the threshold concentration is <31.3 μM) | L (low solubility if the threshold concentration is <31.3 μM) | L (low solubility if the threshold concentration is <31.3 μM) | L (low solubility if the threshold concentration is <31.3 μM) |  | 
